# In ChEMBL document CHEMBL5724558, “Image-based profiling of drug vulnerabilities in CRC organoids” (2024):
# Values joined by “and” are separate entries in the source; they are usually repeats but may differ in a detail not shown here. Equal entries are not always repeated.
# What was measured:
# Type in all cases: functional, Homo sapiens
# Parameters in all cases: dose or concentration left out as unconfirmed
# Colon cancer organoid [1] = assay: (§1) Image-based profiling of donated chemical probes and chemogenomic kinase set in O06 CRC organoid. Image analysis is performed on the sum area metric, and the data were normalized to the DMSO control. After imaging the organoid viability is measured using the OneGloEX Luciferase Assay System. The normalized viability data and sum area are reported.
# Colon cancer organoid [2] = assay: as §1, with “O21” for “O06”
# Colon cancer organoid [3] = assay: as §1, with “O09” for “O06”
Structure (SMILES),Cell Viability (Colon cancer organoid [1]; Replication number 1),Cell Viability (Colon cancer organoid [1]; Replication number 2),Cell Viability (Colon cancer organoid [2]; Replication number 1),Cell Viability (Colon cancer organoid [2]; Replication number 2),Cell Viability (Colon cancer organoid [3]; Replication number 1),Cell Viability (Colon cancer organoid [3]; Replication number 2)
CN1CCN(c2ccc(-c3cccc(CN4CCOCC4)c3)cc2NC(=O)c2c[nH]c(=O)cc2C(F)(F)F)CC1,183.315% and 145.933%,137.387% and 99.6548%,76.0385% and 85.8263%,102.756% and 104.714%,103.563% and 97.1406%,155.063% and 99.7783%
O=C(NCCN1CCOCC1)c1ccc2c(c1)C(=O)c1ccc(Nc3ccc(F)c(NC(=O)c4ccccc4)c3)cc1CC2 [FS-694],84.5729% and 99.5951%,109.979% and 139.596%,104.56% and 105.311%,87.9959% and 93.3039%,75.6733% and 93.7852%,52.7357% and 85.0515%
Cc1nc(-c2cn3c(n2)-c2ccc(-c4cnn(C(C)(C)C(N)=O)c4)cc2OCC3)n(C(C)C)n1 [TASELISIB],24.4584% and 46.9606%,18.3941% and 28.1748%,74.483% and 67.4564%,68.3353% and 63.3321%,40.2908% and 23.1884%,43.7188% and 27.2651%
COc1cccc(CNC(=O)c2nc3scc(CN(C)Cc4ccccc4)c3c(=O)[nH]2)c1 [T-26f],86.0581% and 83.8408%,86.5317% and 78.1759%,98.5646% and 83.8292%,88.8685% and 86.2245%,195.868% and 94.1333%,147.324% and 100.767%
CCOC(=O)Nc1cc(-c2ccc(C)c(NS(C)(=O)=O)c2)nn2c(C)nnc12,97.2241% and 83.1141%,52.6014% and 56.6383%,101.464% and 109.34%,124.525% and 131.026%,56.4078% and 39.4127%,74.2439% and 53.3101%
COc1cc(C#N)ccc1S(=O)(=O)Nc1ccc2c(c1)cc(C)c(=O)n2C,109.695% and 120.805%,114.995% and 99.8938%,105.091% and 139.321%,90.295% and 90.2148%,120.569% and 113.833%,161.546% and 95.5021%
Cc1sc2c(c1C)C(c1ccc(Cl)cc1)=N[C@@H](CC(=O)OC(C)(C)C)c1nnc(C)n1-2,19.6589% and 56.2953%,20.5614% and 51.6198%,79.5251% and 85.2384%,67.4511% and 80.5489%,38.4274% and 33.3849%,47.2906% and 27.9949%
C[C@@H]1CN(c2cc(-c3nn(C)c4ccc(OC5(C)CC5)cc34)ncn2)C[C@H](C)O1 [MLi-2-NC],109.32% and 103.981%,134.588% and 115.132%,92.869% and 94.89%,95.8024% and 129.082%,104.615% and 76.2145%,63.1554% and 89.3757%
Cn1cc(-c2ccc3occ(-c4ccccc4-c4ccccc4)c3n2)cn1,113.014% and 144.526%,79.1768% and 87.7674%,120.62% and 121.278%,112.27% and 102.009%,118.722% and 95.2756%,122.009% and 96.5129%
CN(C)C(=O)Cn1cc(-c2nc(C3(c4ccc(-c5cnc(N)nc5)cc4)CC3)no2)cn1 [BI 0153],106.576% and 110.07%,80.0994% and 77.4652%,115.747% and 91.3972%,95.3195% and 84.6939%,152.465% and 95.0889%,176.713% and 106.608%
CC1=C(C#N)C(c2ccc3c(c2)c(NC(=O)c2ccccc2C)nn3C)C(C#N)=C(C)N1 [BAY-974],84.6822% and 93.2084%,111.085% and 112.763%,90.5008% and 96.0543%,89.8417% and 122.959%,82.726% and 84.3377%,101.367% and 119.752%
CO[C@H]1CC[C@H](CNc2ccc(S(=O)(=O)NC(=O)c3ccc(N4CCN(CC5=C(c6ccc(Cl)cc6)CC(C)(C)CC5)CC4)cc3Oc3cnc4[nH]ccc4c3)cc2[N+](=O)[O-])CC1 [A-1211212],28.9146% and 70.6883%,21.4505% and 46.3719%,101.35% and 117.861%,64.2952% and 94.8335%,50.8739% and 100.725%,51.2572% and 87.2324%
O=C(O)[C@@H]1[C@@H](Cn2nnc3ccccc3c2=O)CC[C@H]1C(=O)c1ccc(OCCC2CCOCC2)cc1 [BAY-694],110.156% and 94.3794%,134.213% and 84.5721%,110.342% and 94.3079%,96.7199% and 85.7143%,120.527% and 70.2416%,178.043% and 104.564%
COc1ccc2c(O[C@@H]3C[C@H]4C(=O)N[C@]5(C(=O)O)CC5/C=C\CCCCC[C@H](NC(=O)OC5CCCC5)C(=O)N4C3)cc(-c3csc(NC(=O)C(C)C)n3)nc2c1C (stereo partly specified) [BI 1230],145.195% and 153.864%,115.735% and 122.476%,91.3171% and 103.622%,114.827% and 120.408%,106.493% and 128.298%,89.1059% and 82.6579%
Cc1ccc2[nH]c(CNCCCc3ccncc3)cc(=O)c2c1 [UCSF924NC],91.5293% and 106.883%,122.187% and 128.063%,94.0995% and 104.765%,78.5864% and 74.4392%,130.653% and 96.5987%,94.8728% and 93.7748%
Cn1cc(CCn2cnc(-c3cnn(C)c3)c2-c2ccc(C#N)cc2)cn1,175.784% and 127.57%,222.733% and 136.219%,99.776% and 95.2319%,89.4066% and 104.177%,104.672% and 93.4312%,96.0156% and 86.9496%
CCCOc1ccn2c(C(C)=O)cc(-c3cccc(OC)c3)c2c1,185.69% and 133.611%,217.677% and 137.175%,114.752% and 106.401%,123.226% and 102.029%,257.79% and 103.4%,158.474% and 115.458%
CC(C)(C)c1cc(NC(=O)Nc2ccc(-c3cn4c(n3)sc3cc(OCCN5CCOCC5)ccc34)cc2)no1 [QUIZARTINIB],39.693% and 48.7411%,34.5672% and 63.5476%,67.5016% and 73.0314%,71.418% and 77.7258%,85.316% and 55.6023%,92.2589% and 77.476%
CN(C)C(=O)N1CC[C@H](NC2=Nc3cc(F)ccc3N(CC(F)F)c3ccc(Cl)cc32)C1,112.42% and 113.793%,60.2365% and 60.6343%,101.162% and 105.976%,96.6139% and 109.943%,91.7013% and 91.0686%,138.489% and 113.836%
CC[C@H](CC(=O)O)n1c(=O)c2ncccc2n(Cc2cn(C)c3cc(C)cc(C)c23)c1=O [BI-1942],122.43% and 127.53%,114.507% and 111.004%,98.903% and 90.5784%,95.5994% and 107.07%,76.1388% and 88.7208%,109.791% and 100.317%
CSc1cccnc1N1CCN(Cc2nc3ccccc3[nH]2)CC1 [A-769],94.9192% and 98.1265%,78.7963% and 95.9431%,84.3952% and 76.2613%,99.9235% and 83.6735%,134.459% and 96.2835%,149.547% and 115.371%
CCOC(=O)c1c(/C(C#N)=C\N)c2ccc(Cl)c(Cl)c2n1C,68.8446% and 103.482%,89.5184% and 120.135%,124.932% and 127.137%,116.619% and 130.014%,79.2888% and 103.726%,80.6301% and 101.308%
CC1(C)C(N)=Nc2cc(OCCCCN3Cc4ccc(OCc5cn(CC(=O)N6CCC(CCN7CCCC7)CC6)nn5)cc4C3)c(OCC3CC3)cc21,120.738% and 74.8993%,69.8334% and 85.077%,75.5552% and 109.928%,77.1471% and 105.251%,129.867% and 99.2272%,184.968% and 121.159%
COc1ccc(CCc2nc3cc(-c4c(C)noc4C)ccc3n2C[C@H](C)N2CCOCC2)cc1Cl,175.76% and 138.685%,131.173% and 129.766%,102.391% and 140.496%,95.0347% and 135.859%,60.3888% and 74.4204%,92.6649% and 71.2702%
Cc1c(NC(=O)COc2ccc(Cl)cc2C(=O)c2cc(F)cc(C(F)(F)F)c2)ccc(C(=O)O)c1F [BI 2540],58.8741% and 96.3504%,87.0416% and 104.656%,96.7046% and 115.044%,105.62% and 95.2087%,121.956% and 104.432%,133.179% and 113.341%
CN(C)C(=O)Cn1cc(-c2ccc(-c3nnc4ccccn34)cc2)cn1,116.057% and 113.952%,85.0591% and 113.728%,108.728% and 107.596%,93.8353% and 96.1497%,166.343% and 115.942%,81.4375% and 98.5321%
